Measured values as given in patent publication US20090118332A1, “Therapeutic Agents - 551” (AstraZeneca AB, priority 2006, published 2009).

target: T1, human Fatty Acid Synthase (Homo sapiens, UniProt P49327); assay: Human FAS enzyme assay (decrease in NADPH fluorescence); assay type: biochemical; details: % inhibition at a concentration of 100 μmolar
T1 construct: made in house
Method: Human and Rat FAS Enzyme Assay.
Fatty acid synthase is an enzyme complex that harbours seven enzymatic activities catalysing the reductive synthesis of long chain fatty acids from acetyl CoA and malonyl CoA to palmitate. When acetyl CoA and malonyl CoA are forming palmitate NADPH is consumed forming NADP. Since NADPH is fluorescent but not NADP the reaction can be measured by analysing the decrease in fluorescence.
Compounds were added to a black 384 well plate (Matrix) in a volume of 5 μl consisting of 20% DMSO and 80% Tris buffer pH 7.5, at a top concentration of 1 mM. NADPH, 30 μl of 166.6 μM, formulated in assay buffer (0.1M Tris ph7.5, 0.1 mM EDTA, 1 mM glutathione, 0.05% BSA), was then added to all of the wells of the plate. Fatty acid synthase Human or rat enzyme (0.4 μg, produced in house), dissolved in 20 mM Tris/HCl pH 7.5, 5 mM BOG, 1 mM TCEP, 10% glycerol, 1 mM EDTA, 150 mM NaCl, was then added to the plate in a volume of 10 μl. Enzyme was added to all but the last two columns of the plate, to which, 10 μl of assay buffer was added (0.1M Tris ph7.5, 0.1 mM EDTA, 1 mM glutathione, 0.05% BSA) to provide a no enzyme assay control. Following a 15-minute incubation period, at room temperature, the plates were read on an Envision plate reader using 340 nm excitation and 460 nm emission filters. This served as a time zero background read. Substrates (an equal mix of both malonyl and acetyl CoA) were then added to the plates in a total volume of 5 μl. The concentrations of malonyl and acetyl CoA in the mixture were 500 μM and 150 μM respectively. Both were prepared as 10 mM stock solutions in distilled water and were subsequently diluted to working concentrations in assay buffer. Plates were then incubated for a further 60 minutes, at room temperature, before being read again on the Envision reader using the same parameters as previously used. The data was analysed by subtracting the background time zero data from that generated following the final 60 minute incubate and the percent inhibition compared to the maximum and minimum assay controls was determined. Sigmoid curves were fitted using Origin 7.5 Client software and IC50 values were determined.

T1 sequence (P49327 whole entry): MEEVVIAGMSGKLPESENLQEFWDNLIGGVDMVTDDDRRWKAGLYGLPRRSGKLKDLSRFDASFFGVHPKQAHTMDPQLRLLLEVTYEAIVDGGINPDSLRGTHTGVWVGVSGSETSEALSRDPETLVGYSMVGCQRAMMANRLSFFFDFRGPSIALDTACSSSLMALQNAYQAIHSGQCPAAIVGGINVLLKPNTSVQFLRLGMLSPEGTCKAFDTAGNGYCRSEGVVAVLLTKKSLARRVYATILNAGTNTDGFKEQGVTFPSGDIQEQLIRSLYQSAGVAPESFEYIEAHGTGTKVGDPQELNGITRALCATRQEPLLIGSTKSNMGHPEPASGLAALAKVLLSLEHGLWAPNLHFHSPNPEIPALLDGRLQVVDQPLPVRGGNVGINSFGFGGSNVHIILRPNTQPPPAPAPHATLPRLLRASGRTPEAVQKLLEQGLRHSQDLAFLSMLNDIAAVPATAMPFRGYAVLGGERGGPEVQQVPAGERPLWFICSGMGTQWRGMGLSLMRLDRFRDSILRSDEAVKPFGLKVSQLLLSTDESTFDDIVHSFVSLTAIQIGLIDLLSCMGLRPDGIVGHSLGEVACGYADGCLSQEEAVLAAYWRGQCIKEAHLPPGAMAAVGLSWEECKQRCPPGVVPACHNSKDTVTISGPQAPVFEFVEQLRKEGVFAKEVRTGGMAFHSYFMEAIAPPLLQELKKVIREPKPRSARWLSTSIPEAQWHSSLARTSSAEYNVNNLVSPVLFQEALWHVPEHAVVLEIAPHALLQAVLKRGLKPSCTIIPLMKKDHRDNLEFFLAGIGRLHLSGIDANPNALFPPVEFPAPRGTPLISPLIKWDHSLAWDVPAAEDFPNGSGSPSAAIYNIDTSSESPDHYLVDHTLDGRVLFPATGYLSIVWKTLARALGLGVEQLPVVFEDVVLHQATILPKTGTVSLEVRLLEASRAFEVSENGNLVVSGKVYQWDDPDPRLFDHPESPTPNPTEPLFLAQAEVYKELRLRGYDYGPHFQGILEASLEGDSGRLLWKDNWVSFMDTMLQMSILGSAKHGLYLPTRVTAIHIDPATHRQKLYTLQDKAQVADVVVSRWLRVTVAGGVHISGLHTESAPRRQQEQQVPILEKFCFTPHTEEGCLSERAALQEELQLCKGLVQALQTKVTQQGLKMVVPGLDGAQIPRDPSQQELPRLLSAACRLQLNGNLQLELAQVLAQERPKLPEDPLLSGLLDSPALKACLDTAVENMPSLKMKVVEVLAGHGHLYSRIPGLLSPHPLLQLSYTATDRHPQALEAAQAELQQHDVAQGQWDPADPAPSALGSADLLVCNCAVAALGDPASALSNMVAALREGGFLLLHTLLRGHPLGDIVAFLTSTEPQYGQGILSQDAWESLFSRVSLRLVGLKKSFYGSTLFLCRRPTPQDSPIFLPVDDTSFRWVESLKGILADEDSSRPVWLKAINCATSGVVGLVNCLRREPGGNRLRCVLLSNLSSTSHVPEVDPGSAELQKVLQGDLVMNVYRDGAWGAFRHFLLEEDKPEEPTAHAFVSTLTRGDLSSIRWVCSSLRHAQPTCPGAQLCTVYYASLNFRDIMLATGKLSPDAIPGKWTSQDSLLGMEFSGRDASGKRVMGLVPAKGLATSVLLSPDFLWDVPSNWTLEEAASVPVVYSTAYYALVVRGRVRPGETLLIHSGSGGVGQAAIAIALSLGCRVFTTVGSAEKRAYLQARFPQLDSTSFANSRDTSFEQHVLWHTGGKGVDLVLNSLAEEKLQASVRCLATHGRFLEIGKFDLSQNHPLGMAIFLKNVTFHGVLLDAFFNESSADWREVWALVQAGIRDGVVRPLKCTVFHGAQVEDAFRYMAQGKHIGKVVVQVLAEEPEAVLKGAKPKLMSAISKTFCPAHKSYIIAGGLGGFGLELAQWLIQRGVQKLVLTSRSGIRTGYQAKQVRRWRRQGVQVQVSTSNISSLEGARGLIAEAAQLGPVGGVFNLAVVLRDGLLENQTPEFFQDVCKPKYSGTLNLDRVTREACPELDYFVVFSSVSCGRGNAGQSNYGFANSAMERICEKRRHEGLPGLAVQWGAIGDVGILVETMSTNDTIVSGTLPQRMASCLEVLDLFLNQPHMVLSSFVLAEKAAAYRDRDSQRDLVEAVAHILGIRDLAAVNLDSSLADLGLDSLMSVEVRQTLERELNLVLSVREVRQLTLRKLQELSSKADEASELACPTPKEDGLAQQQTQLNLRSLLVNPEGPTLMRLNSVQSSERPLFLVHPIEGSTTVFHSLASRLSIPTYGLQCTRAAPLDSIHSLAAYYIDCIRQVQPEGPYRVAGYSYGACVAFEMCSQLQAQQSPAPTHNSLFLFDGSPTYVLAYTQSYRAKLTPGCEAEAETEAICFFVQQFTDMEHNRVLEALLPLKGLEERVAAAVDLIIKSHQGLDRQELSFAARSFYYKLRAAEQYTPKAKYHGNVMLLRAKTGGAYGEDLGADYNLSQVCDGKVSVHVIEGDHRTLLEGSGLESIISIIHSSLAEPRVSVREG

Structure (SMILES)	inhibition at 100 µM [%]
CC(C)NC(=O)Nc1cc(C(=O)N2CCC(c3ccc(C#N)cc3)CC2)ccc1C#N [Example 22, 3-[2-cyano-5-[4-(4-cyanophenyl)piperidine-1-carbonyl]phenyl]-1-propan-2-yl-urea]	86.8
Cc1ccc(NC(=O)NCc2cccnc2)cc1C(=O)N1CCC(c2ccc(C#N)cc2)CC1 [Example 25, 1-[3-[4-(4-cyanophenyl)piperidine-1-carbonyl]-4-methyl-phenyl]-3-(pyridin-3-ylmethyl)urea]	79.7
Cc1ccc(NC(=O)NCC2CCOCC2)cc1C(=O)N1CCC(c2ccc(C#N)cc2)CC1 [Example 27, 1-[3-[4-(4-cyanophenyl)piperidine-1-carbonyl]-4-methyl-phenyl]-3-(oxan-4-ylmethyl)urea]	80.7
Cc1ccc(C(=O)N2CCC(c3ccc(C#N)cc3)CC2)cc1NC(=O)NC(C)(C)C [Example 31, 1-[5-[4-(4-cyanophenyl)piperidine-1-carbonyl]-2-methyl-phenyl]-3-tert-butyl-urea]	83.3
Cc1ccc(C(=O)N2CCC(c3ccc(C#N)cc3)CC2)cc1NC(=O)NCc1ccccc1 [Example 32, 3-benzyl-1-[5-[4-(4-cyanophenyl)piperidine-1-carbonyl]-2-methyl-phenyl]urea]	95.5
Cc1ccc(C(=O)N2CCC(c3ccc(C#N)cc3)CC2)cc1NC(=O)NCc1ccc(C#N)cc1 [Example 33, 3-[(4-cyanophenyl)methyl]-1-[5-[4-(4-cyanophenyl)piperidine-1-carbonyl]-2-methyl-phenyl]urea]	91.8
Cc1ccc(C(=O)N2CCC(c3ccc(C#N)cc3)CC2)cc1NC(=O)NCc1cccnc1 [Example 35, 1-[5-[4-(4-cyanophenyl)piperidine-1-carbonyl]-2-methyl-phenyl]-3-(pyridin-3-ylmethyl)urea]	91.6
Cc1ccc(C(=O)N2CCC(c3ccc(C#N)cc3)CC2)cc1NC(=O)NCc1ccncc1 [Example 36, 1-[5-[4-(4-cyanophenyl)piperidine-1-carbonyl]-2-methyl-phenyl]-3-(pyridin-4-ylmethyl)urea]	93.8
Cc1ccc(NC(=O)N[C@H](C)c2ccccc2)cc1C(=O)N1CCC(c2ccc(C#N)cc2)CC1 [Example 37, 3-[3-[4-(4-cyanophenyl)piperidine-1-carbonyl]-4-methyl-phenyl]-1-[(1R)-1-phenylethyl]urea]	74.3
Cc1ccc(NC(=O)N[C@@H](C)c2ccccc2)cc1C(=O)N1CCC(c2ccc(C#N)cc2)CC1 [Example 38, 3-[3-[4-(4-cyanophenyl)piperidine-1-carbonyl]-4-methyl-phenyl]-1-[(1S)-1-phenylethyl]urea]	76.6
Cc1ccc(C(=O)N2CCC(O)(c3ccc(Br)cc3)CC2)cc1NC(=O)NCc1ccccc1 [Example 40, 3-benzyl-1-[5-[4-(4-bromophenyl)-4-hydroxy-piperidine-1-carbonyl]-2-methyl-phenyl]urea]	71.5
Cc1ccc(C(=O)N2CCC(c3ccc(C#N)cc3)CC2)cc1NC(=O)NCC(C)C [Example 42, 1-[5-[4-(4-cyanophenyl)piperidine-1-carbonyl]-2-methyl-phenyl]-3-(2-methylpropyl)urea]	83.8
COc1cc(CNC(=O)Nc2cc(C(=O)N3CCC(c4ccc(C#N)cc4)CC3)ccc2C)cc(OC)c1OC [Example 44, 1-[5-[4-(4-cyanophenyl)piperidine-1-carbonyl]-2-methyl-phenyl]-3-[(3,4,5-trimethoxyphenyl)methyl]urea]	87.9
COC(=O)CCNC(=O)Nc1cc(C(=O)N2CCC(c3ccc(C#N)cc3)CC2)ccc1C [Example 45, methyl 3-[[5-[4-(4-cyanophenyl)piperidine-1-carbonyl]-2-methyl-phenyl]carbamoylamino]propanoate]	91.8
Cc1ccc(NC(=O)N[C@H]2CC[C@@H](O)CC2)cc1C(=O)N1CCC(c2ccc(C#N)cc2)CC1 [Example 48, 1-[3-[4-(4-cyanophenyl)piperidine-1-carbonyl]-4-methyl-phenyl]-3-cis-(4-hydroxycyclohexyl)urea]	93.7

Other lines, results leading:

inhibition at 100 µM [%]	Structure (SMILES)
77	Cc1ccc(NC(=O)NCc2ccccc2F)cc1C(=O)N1CCC(c2ccc(C#N)cc2)CC1 [Example 23, 1-[3-[4-(4-cyanophenyl)piperidine-1-carbonyl]-4-methyl-phenyl]-3-[(2-fluorophenyl)methyl]urea]
78.1	Cc1ccc(NC(=O)N(C)Cc2ccccc2)cc1C(=O)N1CCC(c2ccc(C#N)cc2)CC1 [Example 24, 1-benzyl-3-[3-[4-(4-cyanophenyl)piperidine-1-carbonyl]-4-methyl-phenyl]-1-methyl-urea]
82.9	Cc1ccc(NC(=O)NCCc2ccccc2)cc1C(=O)N1CCC(c2ccc(C#N)cc2)CC1 [Example 26, 1-[3-[4-(4-cyanophenyl)piperidine-1-carbonyl]-4-methyl-phenyl]-3-phenethyl-urea]
83.1	Cc1ccc(NC(=O)N2CCOCC2)cc1C(=O)N1CCC(c2ccc(C#N)cc2)CC1 [Example 28, N-[3-[4-(4-cyanophenyl)piperidine-1-carbonyl]-4-methyl-phenyl]morpholine-4-carboxamide]
79.6	Cc1ccc(NC(=O)N2CCCC2)cc1C(=O)N1CCC(c2ccc(C#N)cc2)CC1 [Example 29, N-[3-[4-(4-cyanophenyl)piperidine-1-carbonyl]-4-methyl-phenyl]pyrrolidine-1-carboxamide]
86.5	Cc1ccc(C(=O)N2CCC(c3ccc(C#N)cc3)CC2)cc1NC(=O)NCc1ccccc1F [Example 34, 1-[5-[4-(4-cyanophenyl)piperidine-1-carbonyl]-2-methyl-phenyl]-3-[(2-fluorophenyl)methyl]urea]
79.1	Cc1ccc(C(=O)N2CCC(O)(c3ccc(Br)cc3)CC2)cc1NC(=O)NC(C)C [Example 39, 1-[5-[4-(4-bromophenyl)-4-hydroxy-piperidine-1-carbonyl]-2-methyl-phenyl]-3-propan-2-yl-urea]
94.4	Cc1ccc(C(=O)N2CCC(c3ccc(C#N)cc3)CC2)cc1NC(=O)NC1CCN(Cc2ccccc2)CC1 [Example 41, 3-(1-benzyl-4-piperidyl)-1-[5-[4-(4-cyanophenyl)piperidine-1-carbonyl]-2-methyl-phenyl]urea]
88.3	C#CCNC(=O)Nc1cc(C(=O)N2CCC(c3ccc(C#N)cc3)CC2)ccc1C [Example 43, 1-[5-[4-(4-cyanophenyl)piperidine-1-carbonyl]-2-methyl-phenyl]-3-prop-2-ynyl-urea]
90.3	CC(C)NC(=O)Nc1cccc(C(=O)N2CCC(c3ccc(C#N)cc3)CC2)c1 [Example 46, 3-[3-[4-(4-cyanophenyl)piperidine-1-carbonyl]phenyl]-1-propan-2-yl-urea]
77.4	Cc1ccc(NC(=O)NCc2cccc(C#N)c2)cc1C(=O)N1CCC(c2ccc(C#N)cc2)CC1 [Example 47, 3-[(3-cyanophenyl)methyl]-1-[3-[4-(4-cyanophenyl)piperidine-1-carbonyl]-4-methyl-phenyl]urea]
98.1	Cc1ccc(NC(=O)N[C@H]2CC[C@H](O)CC2)cc1C(=O)N1CCC(c2ccc(C#N)cc2)CC1 [Example 49, 1-[3-[4-(4-cyanophenyl)piperidine-1-carbonyl]-4-methyl-phenyl]-3-trans-(4-hydroxycyclohexyl)urea]
